Drawing on PMC8286840, “Identifying SARS-CoV-2 antiviral compounds by screening for small molecule inhibitors of Nsp3 papain-like protease” (Biochemical Journal, 2021), this text covers remaining activity for 30 molecules.

The target in assay [1] is T1, SARS-CoV-2 PLpro (nsp3 1564–1878) (Severe acute respiratory syndrome coronavirus 2, UniProt P0DTD1). Put plainly: biochemical. The arrangement: FRET-quenched peptide (Pro3) cleavage by PLpro, 10 min pre-incubation, slope over 20 min, normalised to no-compound control. The note with it: low concentration screen, read-out: % of control remaining.
The target in assay [2] is T1, SARS-CoV-2 PLpro (nsp3 1564–1878). Put plainly: biochemical. The arrangement: FRET-quenched peptide (Pro3) cleavage by PLpro, 10 min pre-incubation, slope over 20 min, normalised to no-compound control. The following applies: high concentration screen, read-out: % of control remaining.

Structures can show the parent of a compound that is named as a salt. Where two headings read alike, the source gives them in different places.

With `CN(C)C(=O)C(CCN1CCC(O)(c2ccc(Cl)cc2)CC1)(c1ccccc1)c1ccccc1` [Loperamide (hydrochloride)], the remaining activity at 1.25 µM in assay [1] (Well no.=7427) is 97.7%. Further, the remaining activity at 3.75 µM in assay [2] (Well no.=7427) worked out at 101%.
With `CN(C)C(=O)C(CCN1CCC(O)(c2ccc(Cl)cc2)CC1)(c1ccccc1)c1ccccc1` [Loperamide hydrochloride], in assay [1] (Well no.=1073), the remaining activity at 1.25 µM worked out at 94.7%. Further, in assay [2] (Well no.=1073), the remaining activity at 3.75 µM is 98.4%.
For the molecule `CN(C)C(=O)C(CCN1CCC(O)(c2ccc(Cl)cc2)CC1)(c1ccccc1)c1ccccc1` [Loperamide.HCl], the remaining activity at 1.25 µM in assay [1] (Well no.=1597) was 104%. Besides, in assay [2] (Well no.=1597), the remaining activity at 3.75 µM worked out at 104%.
On to `Cc1cccc(C)c1OCC(=O)N[C@@H](Cc1ccccc1)[C@@H](O)C[C@H](Cc1ccccc1)NC(=O)[C@H](C(C)C)N1CCCNC1=O` [Lopinavir], for which, in assay [1] (Well no.=9076), the remaining activity at 1.25 µM was determined as 83.9%. Besides, in assay [2] (Well no.=9076), the remaining activity at 3.75 µM came to 84.3%.
As for `CCOC(=O)N1CCC(=C2c3ccc(Cl)cc3CCc3cccnc32)CC1` [Loratadine], the remaining activity at 1.25 µM in assay [1] (Well no.=933) stood at 96.2%; in assay [1] (Well no.=2274), 89.1%; in assay [1] (Well no.=7337), 98.6%. Further, the remaining activity at 3.75 µM in assay [2] (Well no.=933) amounted to 98.6%; in assay [2] (Well no.=2274) it was 89.3%; in assay [2] (Well no.=7337), 102%.
Regarding `C[C@H]1CNCCc2ccc(Cl)cc21` [Lorcaserin (Hydrochloride)], the remaining activity at 1.25 µM in assay [1] (Well no.=6954) was 99.1%. In addition, the remaining activity at 3.75 µM in assay [2] (Well no.=6954) stood at 93.7%.
For the molecule `C[C@H]1CNCCc2ccc(Cl)cc21` [Lorcaserin HCl], in assay [1] (Well no.=4742), the remaining activity at 1.25 µM amounted to 102%. For the same molecule, the remaining activity at 3.75 µM in assay [2] (Well no.=4742) turned out to be 102%.
Consider `CCCCCN(CCCCC)C(=O)C(CCC(=O)O)NC(=O)c1ccc(Cl)c(Cl)c1` (centres unmarked) [Lorglumide sodium], for which the remaining activity at 1.25 µM in assay [1] (Well no.=820) was 102%. The remaining activity at 3.75 µM in assay [2] (Well no.=820) is 99.3%.
On to `CCCCCN(CCCCC)C(=O)C(CCC(=O)O)NC(=O)c1ccc(Cl)c(Cl)c1` (centres unmarked) [Lorglumide], for which the remaining activity at 1.25 µM in assay [1] (Well no.=2276) was 96.2%. Further, the remaining activity at 3.75 µM in assay [2] (Well no.=2276) amounted to 98.3%.
On to `CCCCc1nc(Cl)c(CO)n1Cc1ccc(-c2ccccc2-c2nnn[nH]2)cc1` [Losartan (potassium)], for which the remaining activity at 1.25 µM in assay [1] (Well no.=8239) was 101%. For the same molecule, the remaining activity at 3.75 µM in assay [2] (Well no.=8239) was 104%.
As to `CCCCc1nc(Cl)c(CO)n1Cc1ccc(-c2ccccc2-c2nnn[nH]2)cc1` [Losartan potassium], the remaining activity at 1.25 µM in assay [1] (Well no.=2278) stood at 94.3%. In assay [2] (Well no.=2278), the remaining activity at 3.75 µM was determined as 95.8%.
For the molecule `CCOC(=O)O[C@]1(C(=O)OCCl)CC[C@H]2[C@@H]3CCC4=CC(=O)C=C[C@]4(C)[C@H]3[C@@H](O)C[C@@]21C` [Loteprednol Etabonate], the remaining activity at 1.25 µM is 98% in assay [1] (Well no.=4618) and 99.9% in assay [1] (Well no.=6459). Further, the remaining activity at 3.75 µM turned out to be 103% in assay [2] (Well no.=4618) and 97.6% in assay [2] (Well no.=6459).
As for `CN1CCN(C2=Nc3ccccc3Oc3ccc(Cl)cc32)CC1` [Loxapine (succinate)], the remaining activity at 1.25 µM in assay [1] (Well no.=6172) was 93.4%. In addition, the remaining activity at 3.75 µM in assay [2] (Well no.=6172) was found to be 87.5%.
As for `CN1CCN(C2=Nc3ccccc3Oc3ccc(Cl)cc32)CC1` [Loxapine succinate], the remaining activity at 1.25 µM in assay [1] (Well no.=1125) worked out at 93.3%. The remaining activity at 3.75 µM in assay [2] (Well no.=1125) is 89.7%.
In the case of `CN1CCN(C2=Nc3ccccc3Oc3ccc(Cl)cc32)CC1` [Loxapine], the remaining activity at 1.25 µM in assay [1] (Well no.=6371) worked out at 99.7%. The remaining activity at 3.75 µM in assay [2] (Well no.=6371) came to 102%.
For `CCCCCN(CCCOC)C(=O)C(CCC(=O)O)NC(=O)c1ccc(Cl)c(Cl)c1` (centres unmarked) [Loxiglumide], the remaining activity at 1.25 µM in assay [1] (Well no.=8483) is 94.1%. In addition, in assay [2] (Well no.=8483), the remaining activity at 3.75 µM was found to be 95%.
On to `NC(=O)[C@@H]1CCCC[C@@H]1C(=O)Nc1ccc(Cl)c(Cl)c1` [Lu AF21934], for which the remaining activity at 1.25 µM in assay [1] (Well no.=8529) amounted to 104%. In addition, in assay [2] (Well no.=8529), the remaining activity at 3.75 µM turned out to be 104%.
Consider `CCCCN(CCCC)CC(O)c1cc(Cl)cc2c1-c1ccc(Cl)cc1/C2=C/c1ccc(Cl)cc1` (centres unmarked) [Lumefantrine], for which the remaining activity at 1.25 µM in assay [1] (Well no.=5499) is 102%. Also, the remaining activity at 3.75 µM in assay [2] (Well no.=5499) turned out to be 108%.
In the case of `OC[C@@H]1CCCN2CCCC[C@H]12` [Lupinine], the remaining activity at 1.25 µM in assay [1] (Well no.=3609) amounted to 104%. Moreover, the remaining activity at 3.75 µM in assay [2] (Well no.=3609) was determined as 107%.
In the case of `O=C1[C@@H]2[C@H]3CC[C@H](C3)[C@@H]2C(=O)N1C[C@@H]1CCCC[C@H]1CN1CCN(c2nsc3ccccc23)CC1` [Lurasidone HCl], the remaining activity at 1.25 µM in assay [1] (Well no.=4891) was determined as 99.3%. Moreover, the remaining activity at 3.75 µM in assay [2] (Well no.=4891) turned out to be 98%.
`O=c1cc(-c2ccc(O)c(O[C@@H]3O[C@H](CO)[C@@H](O)[C@H](O)[C@H]3O)c2)oc2cc(O[C@@H]3O[C@H](CO)[C@@H](O)[C@H](O)[C@H]3O)cc(O)c12` [Luteolin-3',7-diglucoside]: in assay [1] (Well no.=3309), the remaining activity at 1.25 µM was found to be 97.1%. The remaining activity at 3.75 µM in assay [2] (Well no.=3309) was determined as 95.6%.
For `O=c1cc(-c2ccc(O)c(O)c2)oc2cc(O)cc(O)c12` [Luteolin], the remaining activity at 1.25 µM was determined as 96.9% in assay [1] (Well no.=837) and 97.2% in assay [1] (Well no.=3318). The remaining activity at 3.75 µM in assay [2] (Well no.=837) amounted to 102%; in assay [2] (Well no.=3318), 98.3%.
For the molecule `CC(=O)NCCc1c(Cc2ccccc2)[nH]c2ccccc12` [Luzindole], the remaining activity at 1.25 µM in assay [1] (Well no.=5524) is 92.5%. The remaining activity at 3.75 µM in assay [2] (Well no.=5524) is 96.8%.
`O[C@H]1[C@H]2c3cc4c(cc3CN3CCC(=C[C@@H]1O)[C@H]23)OCO4` [Lycorine]: the remaining activity at 1.25 µM in assay [1] (Well no.=3379) was 99.9%. In addition, in assay [2] (Well no.=3379), the remaining activity at 3.75 µM was 99.5%.
Consider `CN1C[C@H](CO)C=C2c3cccc4[nH]cc(c34)C[C@H]21` [Lysergol], for which the remaining activity at 1.25 µM in assay [1] (Well no.=3382) is 96.8%. Besides, the remaining activity at 3.75 µM in assay [2] (Well no.=3382) stood at 93.3%.
Regarding `CCCCCCCC/C=C\CCCCCCCC(=O)OC[C@@H](O)COP(=O)(O)O` [Lysophosphatidic acid], the remaining activity at 1.25 µM in assay [1] (Well no.=4497) came out at 97.9%. For the same molecule, the remaining activity at 3.75 µM in assay [2] (Well no.=4497) worked out at 105%.
For the molecule `CCc1cnc(N2CCC(c3nc(COc4ccc(-n5cnnn5)cc4)cs3)CC2)nc1` [MBX-2982], the remaining activity at 1.25 µM in assay [1] (Well no.=8381) stood at 102%. The remaining activity at 3.75 µM in assay [2] (Well no.=8381) came to 99.5%.
Take `Cn1cc(/C=C/C(=O)c2cccc(F)c2)cc1/C=C/C(=O)NO` [MC1568]: the remaining activity at 1.25 µM in assay [1] (Well no.=4905) worked out at 102%. In addition, the remaining activity at 3.75 µM in assay [2] (Well no.=4905) is 101%.
For `CC1=NN(c2ccccc2)C(=O)C1` [MCI-186], in assay [1] (Well no.=3901), the remaining activity at 1.25 µM was found to be 103%. Moreover, in assay [2] (Well no.=3901), the remaining activity at 3.75 µM came to 103%.
As for `COc1ccc(C(=O)/C=C/c2cc(OC)c(OC)c(OC)c2)cc1OC` [MD2-IN-1], in assay [1] (Well no.=8739), the remaining activity at 1.25 µM stood at 100%. Besides, the remaining activity at 3.75 µM in assay [2] (Well no.=8739) was 95.8%.
